Consider 9 molecules from ChEMBL document CHEMBL1147669, “Synthesis of biphenyltrienes as probes for beta-amyloid plaques” (J Med Chem, 2006).

For experiment [1], the target named is T1, Amyloid-beta precursor protein (Homo sapiens, UniProt P05067). Kind of experiment: Displacement of [125I]2-(4'-dimethylaminophenyl)-6-iodoimidazo[1,2-a]pyridine from beta amyloid peptide in brain tissue at 50 uL. The class given is tissue-based.
For experiment [2], the target named is T1, Amyloid-beta precursor protein. As to the kind of experiment: Displacement of [125I](E,E)-1-iodo-2,5-bis-(3-hydroxycarbonyl-4-methoxy)styrylbenzene from beta amyloid peptide in brain tissue at 50 uL. The class given is tissue-based.

T1 sequence (P05067 whole entry): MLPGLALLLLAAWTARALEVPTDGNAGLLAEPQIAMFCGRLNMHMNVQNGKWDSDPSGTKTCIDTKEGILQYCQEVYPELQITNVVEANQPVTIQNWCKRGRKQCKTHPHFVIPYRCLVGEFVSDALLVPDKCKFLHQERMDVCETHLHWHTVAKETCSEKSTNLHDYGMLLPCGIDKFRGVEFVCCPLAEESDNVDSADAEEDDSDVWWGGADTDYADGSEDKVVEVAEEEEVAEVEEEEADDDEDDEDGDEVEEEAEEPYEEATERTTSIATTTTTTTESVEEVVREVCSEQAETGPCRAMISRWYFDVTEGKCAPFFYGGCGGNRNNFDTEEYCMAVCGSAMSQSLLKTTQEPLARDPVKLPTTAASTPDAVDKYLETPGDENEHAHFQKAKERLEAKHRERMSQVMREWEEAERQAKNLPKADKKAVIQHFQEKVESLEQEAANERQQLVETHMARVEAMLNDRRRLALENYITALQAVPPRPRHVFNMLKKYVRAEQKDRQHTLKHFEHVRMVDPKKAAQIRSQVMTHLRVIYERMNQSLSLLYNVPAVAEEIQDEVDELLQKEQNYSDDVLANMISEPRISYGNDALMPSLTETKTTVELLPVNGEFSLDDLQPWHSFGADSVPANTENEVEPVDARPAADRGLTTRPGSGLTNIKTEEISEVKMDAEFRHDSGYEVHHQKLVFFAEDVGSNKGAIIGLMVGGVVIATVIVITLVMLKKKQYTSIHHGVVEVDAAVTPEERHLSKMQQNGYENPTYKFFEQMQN

For the molecule `Oc1ccc(/C=C/C=C/C=C/c2ccc(O)cc2)cc1`, the inhibition constant Ki in experiment [1] turned out to be 9 nM; in experiment [2], 150 nM.

With `CNc1ccc(/C=C/C=C/C=C/c2ccc(NC)cc2)cc1`, the results for the inhibitory constant (Ki) in experiment [1] and in experiment [2] were 7.5 nM and 122 nM, respectively.

Consider `COc1ccc(/C=C/c2ccc(/C=C/c3ccc(OC)c(C(=O)O)c3)c(I)c2)cc1C(=O)O`, for which the Ki in experiment [1] is > 1000 nM; in experiment [2], 5.1 nM.

Take `Nc1ccc(/C=C/C=C/C=C/c2ccc(N)cc2)cc1`: the Ki in experiment [1] was found to be 9 nM; in experiment [2], 375 nM.

As for `CN(C)c1ccc(/C=C/C=C/C=C/c2ccc(N(C)C)cc2)cc1`, the inhibition constant Ki in experiment [1] is 837 nM; in experiment [2], > 7000 nM.

For the molecule `CC(=C(C#N)C#N)c1ccc2cc(N(C)CCF)ccc2c1`, the inhibition constant (Ki) was 152 nM in experiment [1] and > 8000 nM in experiment [2].

Turning to `O=[N+]([O-])c1ccc(/C=C/C=C/C=C/c2ccc([N+](=O)[O-])cc2)cc1`, the inhibition constant Ki in experiment [1] is 500 nM; in experiment [2], > 4000 nM.

Take `COc1ccc(/C=C/C=C/C=C/c2ccc(OC)cc2)cc1`: the Ki in experiment [1] was > 4000 nM; in experiment [2], > 8000 nM.

On to `Nc1ccc(/C=C/C=C/C=C/c2ccc(NCCF)cc2)cc1`, for which the Ki in experiment [1] is 12 nM; in experiment [2] it was 217 nM.
